Legend:
PC3 (Prostate) = assay: In vitro cytotoxicity, MTT proliferation assay, PC3; assay type: cell-based, human; conditions: Homo sapiens
Experimental: (§1) The human pancreatic cancer cell line, HPAC (CRL-2119) was routinely cultured in 1:1 mixture DMEM (Sigma) plus Ham's F12 (Sigma) medium containing HEPES (15 mM), insulin (0.002 mg/ml), transferrin (0.005 mg/ml), hydrocortisone, (40 ng/ml), epidermal growth factor (10 ng/ml). The ovarian cancer cell line CP70 was obtained as a gift from Dr. Gil Mor (Yale University) and cultured in a 1:1 mixture DMEM plus Ham's F12 medium, and SKOV-3 was purchased from ATCC and cultured in McCoy's 5a medium. The breast cancer cell line MDA-MB-468 cultured in Leibovitz's L-15 medium.
(§2) All cultures were supplemented with 10% FCS(CSL, Australia), penicillin (100 U/ml), streptomycin ([…]), L-glutamine (2 mM) and sodium bicarbonate (1.2 g/L), and cultured at 37° C. in a humidified atmosphere of 5% CO2. All remaining cell lines were purchased from ATCC (Maryland, USA) except where noted.
(§3) IC50 values were determined for each cell line. Cells were seeded in 96-well plates at an appropriate cell density as determined from growth kinetics analysis. NFFs were cultured for 5 days and RK-13s for 24 hrs in the absence and presence of the test compounds. Cell proliferation was assessed after the addition of 20 μl of 3-4,5 dimethylthiazol-2,5-diphenyl tetrazolium bromide (MTT, 2.5 mg/ml in PBS, Sigma) for 3-4 hrs at 37° C. according to manufacturer's instructions. IC50 values were calculated from semi-log plots of % of control proliferation on the y-axis against log dose on the x-axis.

[1] = test system: ear swelling in mice induced by the topical application of arachidonic acid (AA); assay: Murine ear inflammation induced by arachidonic acid; assay type: in vivo, Female BALB/c mice
Experimental: Compound 2 was examined for its ability to inhibit ear swelling in mice induced by the topical application of arachidonic acid (AA). The inflammatory response due AA, the immediate precursor of the eicosanoids, is due to formation of AA metabolites via both the cyclooxygenase (COX) and lipoxygenase (LOX) pathways (Young et al. 1984). AA induces an early (10-15 min) increase in both PGE2 and LTC4 synthesis which precedes the increase in ear thickness (Opas et al. 1985; Chang et al. 1986).
Female BALB/c mice (ARC, WA, Australia), weighing 15-21 g were injected with Compound 2 delivered in polyethylene glycol (PEG) 400:phosphate buffered saline (PBS) 1:1 intraperitoneally (i/p) at a dose of 25 mg/kg 30 min prior to the application of AA being to the ears. Mice were anaesthetised using isoflurane and baseline thickness of both ears was measured using a spring micrometer. Each mouse received a total of […] of AA in ethanol (50 mg/ml) applied to the inner and outer surfaces of each pinna (i.e. 0.5 mg AA or 2 μg PMA per ear). […]
The difference in ear swelling pre- and post-application of AA for each ear was calculated, and the average for the two ears of each mouse calculated. The difference in mean swelling of each test group compared to the group given vehicle alone was calculated using a two-tailed unpaired t test (Prism 4, GraphPad Software).

TXB2 synthesis = TXB2 synthesis in human monocytes incubated with LPS; assay type: cell-based; conditions: LPS 200 ng/mL, 18 hrs, dose responsive
Experimental: Human peripheral blood monocytes (from three separate individuals) were isolated from buffy coats by lymphoprep gradient separation of mononuclear cells followed by counter-current centrifugal elutriation (Demasi et al. 2000). The test compounds were dissolved in DMSO and added to fresh monocytes After 30 min, LPS was added to achieve a final concentration of 200 ng/mL. After incubation for 18 hrs at 37° C. in 5% CO2, supernatants were removed and PGE2, TXB2 (the stable hydrolysis product of TXA2) and TNFα production were measured by radioimmunoassay (RIA).

MCF-7 (Breast) = assay: In vitro cytotoxicity, MTT proliferation assay, MCF-7; assay type: cell-based, human; conditions: Homo sapiens, MCF7; Breast MCF-7
Experimental: as §1, §2, §3

thoracic aorta = assay: Aortic ring contractility induced by noradrenaline; design: species or system Male Sprague-Dawley rats; conditions: in presence of Cpd. 2 1 μg/ml; 1.94±0.35 vs. 2.09±0.23, p>0.05, no effect; n=6 rings
Experimental: Male Sprague-Dawley rats (250±50 g) were euthanased with 80% CO2 and 20% O2. The thoracic aorta was excised and quickly mounted in organ-baths as described (Chin-Dusting et al, 2001). Full concentration-contractile curves were obtained to noradrenaline ([…]) in the absence and presence of Cpd. 2 (1 μg/ml). Experiments were repeated in n=6 different rings from 6 different animals.

[2] = test system: Neonatal foreskin fibroblasts (NFF); assay: Normal cell toxicity, MTT proliferation assay, NFF; assay type: cell-based, human
Experimental: Neonatal foreskin fibroblasts (NFF) were a gift from Dr. Peter Parsons (Queensland Institute of Medical Research). RK-13 (rabbit kidney) cells were obtained from Miller Whalley (Macquarie University). Both cell types were cultured in RPMI supplemented with 10% FCS (CSL, Australia), penicillin (100 U/ml), streptomycin ([…]), L-glutamine (2 mM) and sodium bicarbonate (1.2 g/L), and cultured at 37° C. in a humidified atmosphere of 5% CO2.
as §3
Duplicate cytotoxicity assays against NFF cells were conducted with dehydroequol (DHE), 4,9-dihydroxy-14,15-dimethoxy-12a-(3′,4′-dimethoxyphenyl)-3,10-dimethyl-2,11-dioxa-(1H,12H)-6b,6c,12a,16b-tetrahydronaphtho[1,2-g]chrysene (2) from Example 6.1 and cisplatin.

`COc1ccc(C23COc4c(ccc(O)c4C)C2C2c4ccc(O)c(C)c4OCC2c2cc(OC)c(OC)cc23)cc1OC` (centres unmarked) [Cpd. 2, 4,9-Dihydroxy-14,15-dimethoxy-12a-(3′,4′-dimethoxyphenyl)-3,10-dimethyl-2,11-dioxa-(1H,12H)-6b,6c,12a,16b-tetrahydronaphtho[1,2-g]chrysene] was tested, and the IC50 (PC3 (Prostate)) was 7.36 ± 1.35 µM, the “Change in ear thickness (mean ± SD, ×0.01 mm)” value ([1]; 25 mg/kg i/p 30 min prior to AA, 1 hr post-AA, vehicle 14.5 ± 4.7) was 5.1 ± 1.7 ×0.01 mm and the “ear thickness compared with vehicle alone” value ([1]; 25 mg/kg i/p, AA-induced) was “significant reduction”. The “effect on TXB2 synthesis” value (TXB2 synthesis) was “inhibited”, the IC50 (MCF-7 (Breast)) was 10.3 µM and the “maximal contractile response to noradrenaline” value (thoracic aorta) was 2.09±0.23. For the same compound, the IC50 ([2]; Homo sapiens, 120 h, NFF fibroblast, cultured 5 days, MTT) was 23.6 ± 6.6 µM and the “toxicity to normal cells relative to cisplatin and dehydroequol” value ([2]; normal cells (NFF, rabbit kidney)) was “less toxic to normal cells than cisplatin, but more toxic than dehydroequol”.

Source: patent publication US7700644B2, “Isoflavonoid dimers” (Novogen Research Pty Ltd, priority 2005, dated 2010)
